{"source": "patent US20200362301A1", "about": "“EFFICIENT, SCALABLE PRODUCTION OF HUMAN RETINAL PROGENITORS IN VITRO” (Wisconsin Alumni Research Foundation, priority 2019, published 2020)", "type_in_all_cases": "cell-based, human", "key": {"PAX6D TetOn cells [1]": {"tested_on": "PAX6D TetOn cells", "test": "qPCR of retinal gene expression in PAX6D TetOn cells with DOX induction, with or without WNT agonist", "description": "(§1) We then examined the retinal progenitor population when PAX6A or PAX6D was induced. We turned on PAX6A and PAX6D separately in PAX6 KO cells after neuroepithelial cells were generated at day 6 and monitored the retinal progenitor generation along retinal differentiation. […] Thus, PAX6D but not PAX6A restores the PAX6 function in retinal specification.\n(§2) We then asked if the failure of retinal specification in the PAX6D KO cells is rescued by regulating WNT signaling. Treatment of the PAX6D KO cells with IWR1 during retinal differentiation from day 0 to day 10 increased the expression of retinal related genes, including VSX2, LHX2, HES5, SIX3 and SIX6 (FIG. 8C). […] To further corroborate the role of WNTs in mediating the function of PAX6D in retinal specification, we then activated WNT pathway signaling under PAX6D induction along retinal differentiation.\n(§3) PAX6 KO and PAX6D KO cell lines were designed by inserting the PGK-Puromycin in exon 8 and exon alpha of the PAX6 gene, respectively, which terminates the normal translation of PAX6 genes early and PAX6D isoform specifically. The PAX6 KO cells were then used to generate PAX6A TetOn and PAX6D TetOn by inserting the TetOn-PAX6A-3×FLAG and TetOn-PAX6D-3×FLAG into the AAVS1 site of PAX6 KO genome.\nRetinal differentiation from human pluripotent stem cells was performed using the published protocol (Zhong et al., 2014). Briefly, hESCs were passaged to Vitronectin-coated plates and cultured to 60-70% confluency. On day 0 of retinal differentiation, cells were enzymatically detached by dispase (1 mg/ml) and cultured in suspension with E8 medium to form embryoid bodies (EB). EBs were gradually transitioned into neural induction medium (NIM) containing DMEM/F12 (1:1), 1% N2 and 1×NEAA by replacing the medium with a 3:1 ratio of E8/NIM on day 1, 1:1 on day 2, and 100% NIM on day 3. […]\n(§4) Total RNA was isolated with the RNeasy Plus Mini Kit according to the manufacturer's instructions. For quantitative PCR (qPCR), cDNA was synthesized using PrimeScrip RT Reagent Kit. qPCR was performed using iTaq Universal SYBR Green Supermix. […]"}, "[2]": {"tested_on": "wildtype cells (H9 hESCs) in retinal differentiation", "test": "qPCR of retinal gene (EFTF) expression in wildtype cells during retinal differentiation under WNT agonist/antagonist", "description": "WNT8B has a restricted expression in the developing dorsal forebrain (Lako et al., 1998) and plays a repressive role in retinal fate specification (Liu et al., 2010). […] Given the direct connection between PAX6D and WNT8B, we hypothesized that PAX6D regulates retinal specification by repressing WNT8B transcription and thus WNT activity. Indeed, treatment with WNT agonist (CHIR99021, 3 μM) in wildtype cells from day 0 to day 10 suppressed the expression EFTFs. In contrast, treatment with a WNT antagonist (IWR1, 2.5 μM) in wildtype cells enhanced the expression of EFTFs (FIG. 8B).\nRetinal differentiation from human pluripotent stem cells was performed using the published protocol (Zhong et al., 2014). Briefly, hESCs were passaged to Vitronectin-coated plates and cultured to 60-70% confluency. On day 0 of retinal differentiation, cells were enzymatically detached by dispase (1 mg/ml) and cultured in suspension with E8 medium to form embryoid bodies (EB). […]\nas §4"}, "PAX6A TetOn cells": {"tested_on": "PAX6A TetOn cells", "test": "Flow cytometry of SOX1-/SOX2+ retinal progenitor population in PAX6A TetOn cells", "details": "PAX6A induced (from 2.45% without induction)", "description": "as §1\n(§5) Flow cytometry was performed using Transcription Factor Buffer Set which is designed for transcription factor staining following manufacturer's instruction. Briefly, single cells were prepared using TrypLE Express Enzyme and fixed in the fixation buffer provided by the kit at 2-8° C. for 45 min. After 3 washings with the permeable buffer, the primary antibodies (PE-SOX1, V450-SOX2) were added to cells for 45 min at 2-8° C. in a light-tight box. The cells were washed 3 times before analyzed by flow cytometry (BD LSR or BD LSRII). Data analysis was performed using FlowJo."}, "PAX6D TetOn cells [3]": {"tested_on": "PAX6D TetOn cells", "test": "Flow cytometry of SOX1-/SOX2+ retinal progenitor population in PAX6D TetOn cells", "details": "PAX6D induced (from 2.71% without induction)", "description": "as §1, §5"}, "PAX6D KO cells": {"tested_on": "PAX6D KO cells", "test": "qPCR of retinal gene expression in PAX6D KO cells treated with WNT antagonist (rescue of retinal differentiation)", "details": "treatment from day 0 to day 10 of retinal differentiation", "description": "as §2, §3\nRetinal differentiation from human pluripotent stem cells was performed using the published protocol (Zhong et al., 2014). Briefly, hESCs were passaged to Vitronectin-coated plates and cultured to 60-70% confluency. […]\nas §4"}, "[4]": {"details": "PAX6D TetOn in PAX6 KO, DOX for 7 days from day 6 of retinal differentiation"}}, "data": [{"compound": "Cc1c[nH]c(-c2cnc(NCCNc3ccc(C#N)cn3)nc2-c2ccc(Cl)cc2Cl)n1", "note": "[CHIR99021]", "values": [{"measurement": "PAX6D-induced retinal differentiation (expression of VSX2, LHX2, SIX6, NR2F1 and VAX2 at day 10)", "setting": "PAX6D TetOn cells [1]; PAX6D TetOn cells induced by DOX, WNT agonist from day 0 to day 10", "result": "completely blocked"}, {"measurement": "expression of EFTFs (qPCR)", "setting": "[2]; WNT agonist 3 μM from day 0 to day 10 of retinal differentiation", "result": "suppressed"}]}, {"compound": "C[C@H]1c2cccc(O)c2C(=O)C2=C(O)[C@]3(O)C(=O)C(C(N)=O)=C(O)[C@@H](N(C)C)[C@@H]3[C@@H](O)[C@@H]21", "note": "[DOX, doxycycline]", "values": [{"measurement": "SOX1-/SOX2+ retinal progenitor population (flow cytometry)", "setting": "PAX6A TetOn cells", "result": 2.22, "unit": "%"}, {"measurement": "SOX1-/SOX2+ retinal progenitor population (flow cytometry)", "setting": "PAX6D TetOn cells [3]", "result": 23.1, "unit": "%"}, {"measurement": "VAX2 expression increase", "setting": "PAX6D TetOn cells [1]; [4]", "result": 2, "unit": "fold"}, {"measurement": "VSX2 expression increase", "setting": "PAX6D TetOn cells [1]; [4]", "result": 3, "unit": "fold"}]}, {"compound": "O=C(Nc1cccc2cccnc12)c1ccc(N2C(=O)[C@@H]3[C@H](C2=O)[C@@H]2C=C[C@H]3C2)cc1", "note": "[IWR1]", "values": [{"measurement": "expression of retinal related genes, including VSX2, LHX2, HES5, SIX3 and SIX6", "setting": "PAX6D KO cells", "result": "increased"}, {"measurement": "expression of EFTFs (qPCR)", "setting": "[2]; WNT antagonist 2.5 μM", "result": "enhanced"}]}]}
